31 molecules from patent US8853412B2, “Pyrrolidinone derivatives as GPR119 modulators for the treatment of diabetes, obesity, dyslipidemia and related disorders” (Sanofi, priority 2012, dated 2014) can be followed below.

A word on the EC50: it is the concentration needed to bring the measured effect to its halfway point.

In this assay the target is T1, human GPR119 (Homo sapiens, UniProt Q8TDV5).
T1 construct: expressed in transfected cells; host or cells: HEK-293 cell line stably expressing recombinant GPR119
T1 sequence (Q8TDV5 1-335): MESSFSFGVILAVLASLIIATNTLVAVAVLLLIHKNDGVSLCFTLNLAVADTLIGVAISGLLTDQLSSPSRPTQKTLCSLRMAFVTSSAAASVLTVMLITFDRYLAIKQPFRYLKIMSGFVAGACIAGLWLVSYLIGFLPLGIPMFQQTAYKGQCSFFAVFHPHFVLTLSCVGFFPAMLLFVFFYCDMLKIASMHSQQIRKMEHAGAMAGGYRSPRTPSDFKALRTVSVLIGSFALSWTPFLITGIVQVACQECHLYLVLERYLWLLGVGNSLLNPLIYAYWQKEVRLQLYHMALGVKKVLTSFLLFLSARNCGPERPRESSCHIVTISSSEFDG
Nature of the assay: Functional cellular assay measuring GPR119-mediated cAMP release (HTRF), HEK-293 cells stably expressing recombinant GPR119. The conditions noted are these: cell line expressing human GPR119; cAMP response, 30 minutes at room temperature. The assay is classed as cell-based. As to the method: Functional Cellular Assays Measuring GPR119-Mediated cAMP Release.
Compounds of the invention, which are agonists of GPR119, were characterized by functional assays measuring the cAMP response of HEK-293 cell lines stably expressing recombinant GPR119 from man, mouse or rat, or by using a hamster cell line HIT-T15 expressing GPR119 endogenously. The cAMP content was determined using a kit based on homogenous time-resolved fluorescence (HTRF) from Cisbio Corp. (cat. no. 62AM4PEC). For preparation, cells were split into T175 culture flasks and grown to near confluency in medium (DMEM/10% FCS for HEK-293 cells, and F-12K medium/10% horse serum/2.5% FCS for HIT-T15 cells, respectively). Medium was then removed and cells washed with PBS lacking calcium and magnesium ions, followed by proteinase treatment with accutase (Sigma-Aldrich, cat. no. A6964). Detached cells were washed and resuspended in assay buffer (1×HBSS; 20 mM HEPES, 0.1% BSA, 2 mM IBMX) and cellular density determined. They were then diluted to 400000 cells/mL and 25 μL-aliquots dispensed to the wells of 96-well plates. For measurement, 25 μL of test compound in assay buffer was added and incubated for 30 minutes at room temperature. After addition of HTRF reagents diluted in lysis buffer, the plates were incubated for 1 hour, followed by measuring the fluorescence ratio at 665 vs. 620 nm. Potency of the agonists was quantified by determining the concentrations that caused 50% of the maximal response/activation (EC50). See Table 10 for exemplary data obtained using the cell line expressing human GPR119.
`CCCCOc1ccc(O[C@@H]2CCN(c3cc(F)c4c(c3)C(=O)CC4)C2=O)cn1` [Example 2-02]: the concentration for a half-maximal effect (EC50) came out at 27 nM.
With `O=C1CCc2c(F)cc(N3CC[C@@H](Oc4ccc(OCC5CC5)nc4)C3=O)cc21` [Example 1-11, (R)-3-(6-Cyclopropylmethoxy-pyridin-3-yloxy)-1-(7-fluoro-3-oxo-indan-5-yl)-pyrrolidin-2-one] the figure was 8 nM; with `COC(C)(C)CCOc1ccc(O[C@@H]2CCN(c3cc(F)c4c(c3)C(=O)CC4)C2=O)cn1` [Example 2-62], 68 nM.
With `O=C1CCc2ccc(N3CC[C@@H](Oc4ccc(OCCC5CC5)nc4)C3=O)cc21` [Example 1-09] the figure was 64 nM; with `O=C1CCc2c(F)cc(N3CC[C@@H](Oc4ccc(OCC5CC5)nc4)C3=O)c(F)c21` [Example 9-01], 19 nM.
The figure for `CCCCOc1cc(O[C@@H]2CCN(c3cc(F)c4c(c3)C(=O)CC4)C2=O)ccn1` [Example 5-02] is 190 nM; for `O=C1CCc2c(F)cc(N3CC[C@H](Oc4ccc(OCC5CC5)nc4)C3=O)cc21` [Example 3-12] it is 281 nM; for `CC(C)CC(C)Oc1ccc(O[C@@H]2CCN(c3cc(F)c4c(c3)C(=O)CC4)C2=O)cn1` (stereo partly shown) [Example 2-45] it is 25 nM.
As for `O=C1CCc2c(F)cc(N3CC[C@@H](Oc4ccc(OC5CCCOC5)nc4)C3=O)cc21` (stereo partly shown) [Example 2-11], the half-maximal effective concentration (EC50) stood at 29 nM.
Turning to `O=C1CCc2c(F)cc(N3CC[C@@H](Oc4ccc(OCCCO)nc4)C3=O)cc21` [Example 2-42], the EC50 amounted to 1310 nM.
The figure for `O=C1CCc2c(F)cc(N3CC[C@@H](Oc4ccc(OCC5COCO5)nc4)C3=O)cc21` (stereo partly shown) [Example 2-32] is 103 nM.
The figure for `Cc1cc(COc2ccc(O[C@@H]3CCN(c4cc(F)c5c(c4)C(=O)CC5)C3=O)cn2)no1` [Example 2-41] is 360 nM; for `COCCCOc1cc(O[C@@H]2CCN(c3cc(F)c4c(c3)C(=O)CC4)C2=O)ccn1` [Example 5-09] it is 126 nM.
The figure for `O=C1CCc2ccc(N3CC[C@@H](Oc4ccc(OC5CC5)nc4)C3=O)cc21` [Example 1-20] is 87 nM; for `O=C(O)c1cc(O[C@@H]2CCN(c3cc(F)c4c(c3)C(=O)CC4)C2=O)cnc1OCC1CC1` [Example 8-02] it is 2690 nM.
Regarding `CC(C)N(CCOc1ccc(O[C@@H]2CCN(c3cc(F)c4c(c3)C(=O)CC4)C2=O)cn1)C(C)C` [Example 2-58], the EC50 was found to be 7530 nM.
The figure for `CCOCCOc1ccc(O[C@@H]2CCN(c3cc(F)c4c(c3)C(=O)CC4)C2=O)cn1` [Example 2-27] is 277 nM; for `CCCCCOc1cc(O[C@@H]2CCN(c3cc(F)c4c(c3)C(=O)CC4)C2=O)ccn1` [Example 5-06] it is 32 nM; for `CC(C)=CCOc1ccc(O[C@@H]2CCN(c3cc(F)c4c(c3)C(=O)CC4)C2=O)cn1` [Example 2-20] it is 33 nM.
With `O=C1CCc2c(F)cc(N3CC[C@@H](Oc4ccc(OCCC5CC5)cc4)C3=O)cc21` [Example 1-05] the figure was 45 nM.
The figure for `O=C1CCc2c(F)cc(N3CC[C@@H](Oc4ccc(OCCn5ccnc5)nc4)C3=O)cc21` [Example 2-36] is 44200 nM; for `O=C1CCc2c(F)cc(N3CC[C@@H](Oc4ccc(OCCOCCO)nc4)C3=O)cc21` [Example 2-15] it is 289 nM.
As for `CCOc1cc(O[C@@H]2CCN(c3cc(F)c4c(c3)C(=O)CC4)C2=O)ccn1` [Example 5-04], the half-maximal effective concentration (EC50) came out at 169 nM.
With `CCCCCOc1ccc(O[C@@H]2CCN(c3cc(F)c4c(c3)C(=O)CC4)C2=O)cn1` [Example 2-17] the figure was 16 nM; with `O=C1CCc2ccc(N3CC[C@@H](Oc4ccc(Oc5ccccc5)cc4)C3=O)cc21` [Example 1-04], 145 nM.
The figure for `O=C1CCc2c(F)cc(N3CC[C@@H](Oc4ccc(OCCC(F)(F)F)nc4)C3=O)cc21` [Example 2-39] is 18 nM.
Regarding `O=C1CCc2c(F)cc(N3CC[C@@H](Oc4ccc(OCc5ccncc5)nc4)C3=O)cc21` [Example 2-28], the 50% effective concentration (EC50) turned out to be 1410 nM.
On to `O=C1CCc2c(F)cc(N3CC[C@@H](Oc4ccc(OC(F)(F)F)cc4)C3=O)cc21` [Example 3-01], for which the concentration giving a half-maximal response (EC50) was 86 nM.
The figure for `O=C1CCc2c(F)cc(N3CC[C@@H](Oc4ccc(Oc5ccc(F)cc5)nc4)C3=O)cc21` [Example 1-07] is 87 nM; for `O=C1CCc2c(F)cc(N3CC[C@@H](Oc4ccc(OCC5CCCCO5)nc4)C3=O)cc21` (stereo partly shown) [Example 2-54] it is 154 nM.
The figure for `O=C1CCc2c(F)cc(N3CC[C@@H](Oc4ccc(OCC(F)(F)F)nc4)C3=O)cc21` [Example 2-77] is 44 nM.
